Like-named read-outs stand apart in the source and are kept apart here.
Assays:
[1] = test system: Cabbage Looper (Trichoplusia ni) ("CL"), second instar larvae; test: Bioassay on cabbage looper (CL), 128-well diet tray assay; type: in vivo; conditions: for pest or weed control at 50 µg/cm2: Trichoplusia ni
In short: (§1)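 Second-instar larvae on diet in 128-well trays, covered and held at 25° C, 14:10 light-dark, for five to seven days. Percent mortality scored per well and averaged over eight wells; activity reported as a rating category.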

[2] = test system: Beet Armyworm (Spodoptera exigua) ("BAW"), second instar larvae; test: Bioassay on beet armyworm (BAW), 128-well diet tray assay; type: in vivo; conditions: for pest or weed control at 50 µg/cm2: Spodoptera exigua
In short: as §1

[3] = read-out: CL (Biological Results, rating)
[4] = read-out: BAW (Biological Results, rating)

SMILES | pest or weed control at 50 µg/cm2 [1, 3] [%] | pest or weed control at 50 µg/cm2 [2, 4] [%] | pest or weed control at 50 µg/cm2 ([1]; read-out: CL rating) [%] | pest or weed control at 50 µg/cm2 ([2]; read-out: BAW rating) [%] | other results
COc1ccc(C(C)C)c(N2C(=O)CS/C2=N\C(=O)Nc2ccc(-c3ncn(-c4ccc(OCC(F)(F)F)cc4)n3)cc2F)c1 [Compound J58, (Z)-1-(2-Fluoro-4-(1-(4-(2,2,2-trifluoroethoxy)phenyl)-1H-1,2,4-triazol-3-yl)phenyl)-3-(3-(2-isopropyl-5-methoxyphenyl)-4-oxothiazolidin-2-ylidene)urea] | 50 to 100 | 50 to 100 | – | – | –
CCN(CC)c1ccc(C(C)C)c(N2C(=O)CS/C2=N\C(=O)Nc2ccc(-c3ncn(-c4ccc(OC(F)(F)F)cc4)n3)cc2C)c1 [Compound J129, (Z)-1-(3-(5-(Diethylamino)-2-isopropylphenyl)-4-oxothiazolidin-2-ylidene)-3-(2-methyl-4-(1-(4-(trifluoromethoxy)phenyl)-1H-1,2,4-triazol-3-yl)phenyl)urea] | 50 to 100 | 50 to 100 | – | – | –
CCCc1ccc(C)cc1N1C(=O)CS/C1=N\C(=O)Nc1ccc(-c2ncn(-c3ccc(S(F)(F)(F)(F)F)cc3)n2)cc1C#N [Compound J583, (Z)-1-(2-Cyano-4-(1-(4-(pentafluoro-λ^6-sulfaneyl)phenyl)-1H-1,2,4-triazol-3-yl)phenyl)-3-(3-(5-methyl-2-propylphenyl)-4-oxothiazolidin-2-ylidene)urea] | – | – | 50 to 100 | 50 to 100 | –
CCCc1ccc(C)cc1N1C(=O)CS/C1=N\C(=O)Nc1ccc(-c2ncn(-c3ccc(OC(F)(F)C(F)(F)F)cc3)n2)c(C)c1 [Compound J12, (Z)-1-(3-(5-Methyl-2-propylphenyl)-4-oxothiazolidin-2-ylidene)-3-(3-methyl-4-(1-(4-(perfluoroethoxy)phenyl)-1H-1,2,4-triazol-3-yl)phenyl)urea] | 50 to 100 | 50 to 100 | – | – | –
Cc1ccc(C(C)C)c(N2C(=O)CS/C2=N\C(=O)Nc2ccc(-c3ncn(-c4ccc(OC(F)(F)C(F)(F)F)cc4)n3)cc2C)c1 [Compound J24, (Z)-1-(3-(2-Isopropyl-5-methylphenyl)-4-oxothiazolidin-2-ylidene)-3-(2-methyl-4-(1-(4-(perfluoroethoxy)phenyl)-1H-1,2,4-triazol-3-yl)phenyl)urea] | 50 to 100 | 50 to 100 | – | – | –
Cc1ccc(COCC(F)(F)F)c(N2C(=O)CS/C2=N\C(=O)Nc2ccc(-c3ncn(-c4ccc(OC(F)(F)F)cc4)n3)cc2F)c1C [Compound J678] | – | – | – | – | CL rating ([1]; Table ABC, species CL, C = not tested, D = no activity noticed): A (50-100); BAW rating ([2]; Table ABC, species BAW, C = not tested, D = no activity noticed): A (50-100)
COc1cc(-c2ncn(-c3ccc(C(F)(F)F)cc3)n2)ccc1NC(=O)/N=C1\SCC(=O)N1c1cc(C)ccc1C(C)C [Compound J13, (Z)-1-(3-(2-Isopropyl-5-methylphenyl)-4-oxothiazolidin-2-ylidene)-3-(2-methoxy-4-(1-(4-(trifluoromethyl)phenyl)-1H-1,2,4-triazol-3-yl)phenyl)urea] | 50 to 100 | 50 to 100 | – | – | –
Cc1ccc(COCC(F)(F)F)c(N2C(=O)CS/C2=N\C(=O)Nc2ccc(-c3ncn(-c4ccc(OCC(F)(F)F)nc4)n3)cc2F)c1 [Compound J765, (Z)-1-(2-Fluoro-4-(1-(6-(2,2,2-trifluoroethoxy)pyridin-3-yl)-1H-1,2,4-triazol-3-yl)phenyl)-3-(3-(5-methyl-2-((2,2,2-trifluoroethoxy)methyl)phenyl)-4-oxothiazolidin-2-ylidene)urea] | – | – | 50 to 100 | 50 to 100 | –
CCOC(C)c1ccc(C)cc1N1C(=O)CS/C1=N\C(=O)Nc1ccc(-c2ncn(-c3ccc(OC(F)(F)F)cc3)n2)cc1O (centres unmarked) [Compound J179, (Z)-1-(3-(2-(1-Ethoxyethyl)-5-methylphenyl)-4-oxothiazolidin-2-ylidene)-3-(2-hydroxy-4-(1-(4-(trifluoromethoxy)phenyl)-1H-1,2,4-triazol-3-yl)phenyl)urea] | 50 to 100 | 50 to 100 | – | – | –
Cc1ccc(COCC(F)(F)F)c(N2C(=O)CS/C2=N\C(=O)Nc2ccc(-c3ncn(-c4ccc(OC(F)(F)F)cn4)n3)cc2Cl)c1 [Compound J249, (Z)-1-(2-Chloro-4-(1-(5-(trifluoromethoxy)pyridin-2-yl)-1H-1,2,4-triazol-3-yl)phenyl)-3-(3-(5-methyl-2-((2,2,2-trifluoroethoxy)methyl)phenyl)-4-oxothiazolidin-2-ylidene)urea] | 50 to 100 | 50 to 100 | – | – | –
Cc1ccc(COCC(F)(F)F)c(N2C(=O)CS/C2=N\C(=O)Nc2ccc(-n3cnc(-c4ccc(OC(F)(F)F)cc4)n3)cc2F)c1 [Compound J689, (Z)-1-(2-Fluoro-4-(3-(4-(trifluoromethoxy)phenyl)-1H-1,2,4-triazol-1-yl)phenyl)-3-(3-(5-methyl-2-((2,2,2-trifluoroethoxy)methyl)phenyl)-4-oxothiazolidin-2-ylidene)urea] | – | – | 50 to 100 | 50 to 100 | –
COCc1ccc(N(C)C)cc1N1C(=O)CS/C1=N\C(=O)Nc1ccc(-c2cn(-c3ccc(OC(F)(F)F)cc3)nn2)cc1 [Compound J496, (Z)-1-(3-(5-(Dimethylamino)-2-(methoxymethyl)phenyl)-4-oxothiazolidin-2-ylidene)-3-(4-(1-(4-(trifluoromethoxy)phenyl)-1H-1,2,3-triazol-4-yl)phenyl)urea] | – | – | 50 to 100 | 50 to 100 | –
COCc1ccc(N(C)C)cc1N1C(=O)CS/C1=N\C(=O)Nc1ccc(-c2noc(-c3ccc(OC(F)(F)F)cc3)n2)cc1F [Compound J773, (Z)-1-(3-(5-(Dimethylamino)-2-(methoxymethyl)phenyl)-4-oxothiazolidin-2-ylidene)-3-(2-fluoro-4-(5-(4-(trifluoromethoxy)phenyl)-1,2,4-oxadiazol-3-yl)phenyl)urea] | – | – | 50 to 100 | 50 to 100 | –
COCc1ccc(C)cc1N1C(=O)CS/C1=N\C(=O)Nc1ccc(-n2cnc(-c3ccc(OC(F)(F)F)cc3)n2)cc1Cl [Compound J730, (Z)-1-(2-Chloro-4-(3-(4-(trifluoromethoxy)phenyl)-1H-1,2,4-triazol-1-yl)phenyl)-3-(3-(2-(methoxymethyl)-5-methylphenyl)-4-oxothiazolidin-2-ylidene)urea] | – | – | 50 to 100 | 50 to 100 | –
CCc1cc(-c2ncn(-c3ccc(OC(F)(F)F)cc3)n2)ccc1NC(=O)/N=C1\SCC(=O)N1c1cc(NC)ccc1C(C)C [Compound J157, (Z)-1-(2-Ethyl-4-(1-(4-(trifluoromethoxy)phenyl)-1H-1,2,4-triazol-3-yl)phenyl)-3-(3-(2-isopropyl-5-(methylamino)phenyl)-4-oxothiazolidin-2-ylidene)urea] | 50 to 100 | 50 to 100 | – | – | –
Cc1ccc(COCC(F)(F)F)c(N2C(=O)CS/C2=N\C(=O)Nc2ccc(-c3ncn(-c4cc(C(F)(F)F)cc(C(F)(F)F)c4)n3)cc2F)c1 [Compound J760, (Z)-1-(4-(1-(3,5-Bis(trifluoromethyl)phenyl)-1H-1,2,4-triazol-3-yl)-2-fluorophenyl)-3-(3-(5-methyl-2-((2,2,2-trifluoroethoxy)methyl)phenyl)-4-oxothiazolidin-2-ylidene)urea] | – | – | 0 to 50 | 50 to 100 | –
